Results as given in US20260274892A1, “MACROCYCLIC BROAD SPECTRUM ANTIBIOTICS” (RQx Pharmaceuticals, Inc., priority 2017, published 2026).

System: Escherichia coli ATCC 25922
Test: Minimum inhibitory concentration (MIC), CLSI broth micro-dilution, E. coli
Type: cell-based
Settings: Escherichia coli
Protocol: In vitro antimicrobial activity of each compound was determined by measuring minimal inhibitor concentrations (MICs) using the broth micro-dilution technique as approved by the Clinical and Laboratory Standards Institute (CLSI) (Methods for Dilution Antimicrobial Susceptibility Tests for Bacteria that Grow Aerobically; Approved Standard-Eighth Edition. CLSI document M07-A8. Wayne, PA: Clinical and Laboratroy Standards; 2009). Antibacterial activity was measure against two strains of bacteria: a Methicillin Resistant Staphylococcus aureus strain USA 200, (S. aureus) and Escherichia coli ATCC 25922 (E. coli), a clinically relevant Gram-negative strain. Cells were inoculated onto plates of Trypyticase Soy Agar or Luria Agar respectively and grown at 35° C. for 20 hours. Inocula suspensions were prepared by scraping cells into 1 mL of testing media (cation adjusted Mueller Hinton Broth supplemented with 0.002% v/v Tween-80) and diluting to a final OD600nm of 0.01.
Test compounds were prepared in DMSO at a concentration of 10 mg/mL. In protocol 1, the compound stocks were diluted into testing media at a concentration of 64 µg/ml and serial 2-fold dilutions were made in the same media, in 96-well U bottom microtiter dishes, for a total of 10 compound concentrations. In protocol 2, the compound stocks were diluted into testing media at a concentration of 4 µg/mL and serial 2-fold dilutions were made in the same media, in 96-well U bottom microtiter dishes, for a total of 10 compound concentrations. In protocol 3, compound stocks were diluted into testing media at a concentration of 0.5 μg/mL, with serial 2-fold dilutions conducted as described above. In protocol 4, compound stocks were diluted into testing media at a concentration of […], with serial 2-fold dilutions conducted as described above. Inocula suspensions were added to the 2-fold serial dilutions of test compounds to a final density of GD OD600nm of 0.0005 and incubated at 35° C. for 22 hours.

[1] = ATCC25922, 22 h, Table 6, cation adjusted Mueller Hinton Broth + 0.002% Tween-80, 35° C.
[2] = ATCC25922, Table 6, cation adjusted Mueller Hinton Broth + 0.002% Tween-80, 35° C., 22 hours

Row | MIC [1] [µM] | SMILES | MIC [2] [µM] | further results
1 | 0.5 | Cc1nc(-c2ccc(C3CCCC3)cc2)nc(C)c1C(=O)N[C@@H](CCN)C(=O)N(C)[C@@H]1C(=O)N[C@@H](C)C(=O)N[C@H](C(=O)NCC#N)Cc2ccc(OCCN)c(c2)-c2cc1ccc2OCCN (racemic) [Compound 302, rac-(8S,11S,14S)-3,18-bis(2-aminoethoxy)-N-(cyanomethyl)-11-methyl-14-[methyl-[rac-(2S)-4-amino-2-[[2-(4-cyclopentylphenyl)-4,6-dimethyl-pyrimidine-5-carbonyl]amino]butanoyl]amino]-10,13-dioxo-9,12-diazatricyclo[13.3.1.12,6]icosa-1(18),2(20),3,5,15(19),16-hexaene-8-carboxamide] | – | –
2 | 1 | C[C@@H]1NC(=O)[C@@H](N(C)C(=O)[C@H](CCN)NC(=O)c2c(N)cc(-c3ccc(C(C)(C)C)cc3)nc2N)c2ccc(OCCN)c(c2)-c2cc(ccc2OCCN)C[C@@H](C(=O)NCC#N)NC1=O (racemic) [Compound 520, rac-(8S,11S,14S)-3,18-bis(2-aminoethoxy)-N-(cyanomethyl)-11-methyl-14-[methyl-[rac-(2S)-4-amino-2-[[2,4-diamino-6-(4-tert-butylphenyl)pyridine-3-carbonyl]amino]butanoyl]amino]-10,13-dioxo-9,12-diazatricyclo[13.3.1.12,6]icosa-1(18),2(20),3,5,15(19),16-hexaene-8-carboxamide] | – | –
3 | – | Cc1nc(-c2ccc(C(C)(C)C)cc2)nc(C)c1C(=O)N[C@@H](COC(C)(C)C)C(=O)N[C@@H](CCN)C(=O)N(C)[C@@H]1C(=O)N[C@@H](C)C(=O)N[C@H](C(=O)NCC#N)Cc2ccc(OCCN)c(c2)-c2cc1ccc2OCCN (racemic) [Compound 466, rac-(8S,11S,14S)-3,18-bis(2-aminoethoxy)-N-(cyanomethyl)-11-methyl-14-[methyl-[rac-(2S)-4-amino-2-[[rac-(2S)-3-tert-butoxy-2-[[2-(4-tert-butylphenyl)-4,6-dimethyl-pyrimidine-5-carbonyl]amino]propanoyl]amino]butanoyl]amino]-10,13-dioxo-9,12-diazatricyclo[13.3.1.12,6]icosa-1(18),2(20),3,5,15(19),16-hexaene-8-carboxamide] | 1.5 | –
4 | – | Cc1nc(-c2ccc(C(C)(C)C)cc2)nc(C)c1C(=O)N[C@@H](CCN)C(=O)N(C)[C@@H]1C(=O)N[C@@H](C)C(=O)N[C@H](C(=O)NCC#N)Cc2ccc(OCC(CN)CN)c(c2)-c2cc1ccc2O (racemic) [Compound 610, rac-(8S,11S,14S)-3-[3-amino-2-(aminomethyl)propoxy]-N-(cyanomethyl)-18-hydroxy-11-methyl-14-[methyl-[rac-(2S)-4-amino-2-[[2-(4-tert-butylphenyl)-4,6-dimethyl-pyrimidine-5-carbonyl]amino]butanoyl]amino]-10,13-dioxo-9,12-diazatricyclo[13.3.1.12,6]icosa-1(18),2(20),3,5,15(19),16-hexaene-8-carboxamide] | – | MIC (ATCC25922, 22 h, Table 7, cation adjusted Mueller Hinton Broth + 0.002% Tween-80, 35° C.): 0.19 µM
5 | 0.25 | Cc1nc(-c2ccc(C(C)(C)C)cc2)cc(N)c1C(=O)N[C@@H](CCN)C(=O)N(C)[C@@H]1C(=O)N[C@@H](C)C(=O)N[C@H](C(=O)NCC#N)Cc2ccc(OCCN)c(c2)-c2cc1ccc2O (racemic) [Compound 557, rac-(8S,11S,14S)-3-(2-aminoethoxy)-N-(cyanomethyl)-18-hydroxy-11-methyl-14-[methyl-[rac-(2S)-4-amino-2-[[4-amino-6-(4-tert-butylphenyl)-2-methyl-pyridine-3-carbonyl]amino]butanoyl]amino]-10,13-dioxo-9,12-diazatricyclo[13.3.1.12,6]icosa-1(18),2(20),3,5,15(19),16-hexaene-8-carboxamide] | – | –
6 | 0.75 | Cc1cc(-c2ccc(C(C)(C)C)cc2)cc(C)c1C(=O)N[C@@H](CCN)C(=O)N(C)[C@@H]1C(=O)N[C@@H](C)C(=O)N[C@H](C(=O)NCC#N)Cc2ccc(O)c(c2)-c2cc1ccc2OCCN (racemic) [Compound 541, rac-(8S,11S,14S)-18-(2-aminoethoxy)-N-(cyanomethyl)-3-hydroxy-11-methyl-14-[methyl-[rac-(2S)-4-amino-2-[[4-(4-tert-butylphenyl)-2,6-dimethyl-benzoyl]amino]butanoyl]amino]-10,13-dioxo-9,12-diazatricyclo[13.3.1.12,6]icosa-1(18),2(20),3,5,15(19),16-hexaene-8-carboxamide] | – | –
7 | – | Cc1cc(-c2ccc(C(C)(C)C)cc2)nc(C)c1C(=O)N[C@@H](CCN)C(=O)N(C)[C@@H]1C(=O)N[C@@H](C)C(=O)N[C@H](C(=O)NCC#N)Cc2ccc(OCCN)c(c2)-c2cc1ccc2OCCN (racemic) [Compound 358, rac-(8S,11S,14S)-3,18-bis(2-aminoethoxy)-N-(cyanomethyl)-11-methyl-14-[methyl-[rac-(2S)-4-amino-2-[[6-(4-tert-butylphenyl)-2,4-dimethyl-pyridine-3-carbonyl]amino]butanoyl]amino]-10,13-dioxo-9,12-diazatricyclo[13.3.1.12,6]icosa-1(18),2(20),3,5,15(19),16-hexaene-8-carboxamide] | 0.2 | –
8 | – | Cc1nc(-c2ccc(C3(C4CCCC4)CC3)cc2)nc(C)c1C(=O)N[C@@H](CCN)C(=O)N(C)[C@@H]1C(=O)N[C@@H](C)C(=O)N[C@H](C(=O)NCC#N)Cc2ccc(OCCN)c(c2)-c2cc1ccc2OCCN (racemic) [Compound 286, rac-(8S,11S,14S)-3,18-bis(2-aminoethoxy)-N-(cyanomethyl)-11-methyl-14-[methyl-[rac-(2S)-4-amino-2-[[2-[4-(1-cyclopentylcyclopropyl)phenyl]-4,6-dimethyl-pyrimidine-5-carbonyl]amino]butanoyl]amino]-10,13-dioxo-9,12-diazatricyclo[13.3.1.12,6]icosa-1(18),2(20),3,5,15(19),16-hexaene-8-carboxamide] | 0.13 | –
9 | – | Cc1nc(-c2ccc(C(C)(C)C)cc2)nc(C)c1C(=O)N[C@@H](CCN)C(=O)N(C)[C@@H]1C(=O)N[C@@H](C)C(=O)N[C@H](C(=O)NCC#N)Cc2cc(NC(N)=O)c(O)c(c2)-c2cc1ccc2OCCN (racemic) [Compound 618, rac-(8S,11S,14S)-18-(2-aminoethoxy)-N-(cyanomethyl)-3-hydroxy-11-methyl-14-[methyl-[rac-(2S)-4-amino-2-[[2-(4-tert-butylphenyl)-4,6-dimethyl-pyrimidine-5-carbonyl]amino]butanoyl]amino]-10,13-dioxo-4-ureido-9,12-diazatricyclo[13.3.1.12,6]icosa-1(18),2(20),3,5,15(19),16-hexaene-8-carboxamide] | – | MIC (ATCC25922, Table 7, cation adjusted Mueller Hinton Broth + 0.002% Tween-80, 35° C., 22 hours): 0.19 µM
10 | – | Cc1nc(-c2ccc(C3(C(F)(F)F)CC3)cc2)ccc1C(=O)N[C@@H](CCN)C(=O)N(C)[C@@H]1C(=O)N[C@@H](C)C(=O)N[C@H](C(=O)NCC#N)Cc2ccc(OCCN)c(c2)-c2cc1ccc2OCCN (racemic) [Compound 211, rac-(8S,11S,14S)-3,18-bis(2-aminoethoxy)-N-(cyanomethyl)-11-methyl-14-[methyl-[rac-(2S)-4-amino-2-[[2-methyl-6-[4-[1-(trifluoromethyl)cyclopropyl]phenyl]pyridine-3-carbonyl]amino]butanoyl]amino]-10,13-dioxo-9,12-diazatricyclo[13.3.1.12,6]icosa-1(18),2(20),3,5,15(19),16-hexaene-8-carboxamide] | 0.17 | –
